Assay results published in patent US20100172944A1, “COMBINATION OF MONOSACCHARIDES WITH SUNSCREENS AND USE THEREOF” (L'OREAL, priority 2008, published 2010).

What was measured:
[1] = tested on: keratinocytes (HaCat line); assay: Proliferation of keratinocytes in culture medium deficient in growth factors (Cyquant, Nile red, XTT markers); assay type: cell-based; conditions: medium depleted in growth factors; compared with untreated control
Procedure: The keratinocytes (HaCat line) are cultured under two conditions: whole defined culture medium (standard condition) and culture medium deficient in growth factors. This deficient medium gives rise to a controlled delay in cell proliferation. Under these conditions, it is then possible to measure the effects of compounds capable of compensating for the deficiency in growth factors of the culture medium and thus of relaunching the cell multiplication and/or of stimulating cell metabolism.
The keratinocyte proliferation is measured by means of three markers on the same cell population: the level of DNA, which is proportional to the number of cells (Cyquant probe), the level of constituent polar lipids of cell membranes (Nile red probe) and the mitochondrial respiration, which reflects the general cell metabolism (XTT probe).

[2] = tested on: type I procollagen; assay: Synthesis of procollagen 1 in reconstructed skin (indirect immunofluorescence); assay type: cell-based, human; conditions: for procollagen 1 synthesis: reconstructed skin
Procedure: Conventional detection via indirect immunofluorescence of type I procollagen in the dermis of the reconstructed skin was also performed on other series of frozen sections (anti-procoll 1 antibody (MAB 1912 Millipore)+FTIC-coupled conjugate (112-095-068 Jackson Immunoresearch)). In order to obtain bearings within the cutaneous architecture during the microscopic examination of the sections, the cell nuclei of the keratinocytes and fibroblasts are localized by staining them with propidium iodide, as described above. Three frozen sections are prepared at random on each reconstructed skin and on each section, and two microscopic fields (25× objective lens) are analysed by fluorescence microscopy and photographed. The levels of fluorescence proportional to the amount of type I procollagen are compared between the control skin and the skin treated with rhamnose.

[3] = tested on: dermal fibroblasts of the reconstructed skin; assay: Proliferation of fibroblasts in whole reconstructed skin (propidium iodide nuclei count on frozen sections); assay type: cell-based, human; conditions: 5 mM; within 48 hours of treatment; vs control skin
Excerpt: Rhamnose was studied on a model of whole reconstructed skin in order to measure its anti-ageing efficacy on the dermal compartment.
Briefly, the model of reconstructed skin used is that described by Bell et al. (Bell E. et al., The reconstitution of living skin, J. Invest. Dermatol., 1983, July; 81): it includes a dermal equivalent on which is reconstructed a multistratified epidermis; the dermal equivalent is manufactured from acid-soluble collagen, culture medium containing serum and normal adult human fibroblasts. After 5 days of shrinkage, this equivalent is inoculated with keratinocytes and then cultured for 6 days in immersion and for 7 days in emersion in order to obtain a multistratified and differentiated epidermis having a horny layer.
The reconstructed skin is treated with 5 mM rhamnose for 2 days and 5 days in the culture medium; after the treatment, the reconstructed skins are included in Tissue Tek in order to produce frozen sections 7 μm thick with a cryostat. […] Three frozen sections are prepared at random on each reconstructed skin; on each section, two microscopic fields (25× objective lens) are analysed by fluorescence microscopy and photographed. The dermal fibroblasts are thus counted for each reconstructed skin on six images in total representing the six microscopic fields considered. […]

Question: `C[C@H](O)[C@H](O)[C@@H](O)[C@@H](O)C=O` [rhamnose, Rhamnose] was tested. Which keratinocyte proliferation [1] did it give?
Answer: Its keratinocyte proliferation is “activate keratinocyte proliferation”.

Question: What about the “green fluorescence proportional to the amount of type I procollagen” value ([2]; 1 mM for 120 hours, compared with control skin (FIG. 4)) of the same compound?
Answer: Its value is “marked increase in green fluorescence”.

Question: And the “procollagen 1 synthesis” value ([2]; 1 mM)?
Answer: Its value is “stimulation of procollagen 1 synthesis”.

Question: What about the “procollagen 1 synthesis” value ([2]; 5 mM) of the same compound?
Answer: Its value is “stimulation of procollagen 1 synthesis”.

Question: And the “growth of the dermal fibroblasts of the reconstructed skin” value [3]?
Answer: The value was “induces stimulation of growth”.
